Results published in publication PMC11236999, “Antagonism of propofol anesthesia by alkyl-fluorobenzene derivatives” (Scientific Reports, 2024).
pIC50: −log10 of the molar value. “Also recorded” adds a separate entry of the source.

Tests used:
5 dpf larval zebrafish [1] = assay: Zebrafish behavioral model of anesthesia, spontaneous movement (SM); type: in vivo
Experimental: (§1) Figure 2 Screening of PFAL compounds for antagonism of anesthesia. PFAL compounds were screened in 5 dpf zebrafish for their ability to antagonize the anesthetic effects of propofol (panels a, b, c and d) as well as sevoflurane and isoflurane (panels e and f). Each dot represents the data collected from one fish. Spontaneous movement (SM) is the distance of spontaneous swimming in a 4 min period, and elicited movement (EM) is distance moved in 1 s after exposure to a tap stimulus. Both measures were scaled to same-day DMSO controls. […] Mean and 95% CI are shown for each data set. Statistical comparison with both DMSO (D) only (black asterisks) and anesthetic control (Ctrl, gray asterisks) groups are shown. Note that each DMSO comparison is to the DMSO only control (sample on the furthest left of each graph, and the anesthetic control comparisons are made within each anesthetic grouping as indicated by the bars along the x-axis of each graph. ns: P > 0.05, *: P ≤ 0.05, **: P ≤ 0.01, ***: P ≤ 0.001, ****: P ≤ 0.0001).
(§2) Behavioral experiments (screening, EC50 curves) were performed as previously reported. Antagonism after induction was conducted in a similar manner with different timepoints and solution changes as indicated. The DanioVision Observation Chamber (Noldus) and Ethovision XT16 software were used to track and record (1280 × 960 resolution at 25 frames per second) larval zebrafish (5 dpf) movement in glass 96-well plates (Zissner North America 3,600,500). All experiments were performed at 28 °C with the DanioVision Temperature Control Unit. Zebrafish were allowed to equilibrate in E3 and 2% DMSO (with or without drug) for 10 min before being placed in the observation chamber for 22 min of recording. Two different endpoints were used to assess depth of anesthesia: spontaneous movement (SM) and elicited movement (EM). In these measures, fish movement was considered to be non-anesthetized. During each observation, fish were given time to acclimate to the chamber, and minutes 15–19 of the recording were used for analysis of SM. An EM response using the Daniovision tapping device (8 out of 8 intensity, movement response measured for 1 s after stimulus) was also measured at the end of the SM observation period. All recordings were scrutinized by a blind observer for technical errors in tracking to ensure accuracy of zebrafish detection and inaccurate tracking was excluded from further analysis. Toxicity was measured in separate experiments by exposing larvae to compounds for 30 min, transferring to fresh E3, and then observing mortality after exposure. […]

5 dpf larval zebrafish [2] = assay: Zebrafish behavioral model of anesthesia, elicited movement (EM, tap stimulus); type: in vivo
Experimental: as §1, §2

5 dpf zebrafish = assay: Antagonism of anesthesia after induction (sequential addition); type: in vivo; conditions: propofol 3 μM for 10 min, then propofol 3 μM plus 30 μM compound
Experimental: In the above studies, the anesthetic and PFAL compounds were co-administered to the fish simultaneously.
Figure 5 Further Characterization of Propofol Antagonism with Compounds 9 and 10. a and b 5 dpf zebrafish (n = 36) were first anesthetized with 3 μM propofol and then 30 μM of either compound 9 or 10 was added. Between minutes 5 and 10 there is a small gap in the data during which the propofol solution was removed and a solution containing propofol and PFAL compound was added. […] The mean and 95% CI is shown for each data point in all panels.
Behavioral experiments (screening, EC50 curves) were performed as previously reported. Antagonism after induction was conducted in a similar manner with different timepoints and solution changes as indicated. The DanioVision Observation Chamber (Noldus) and Ethovision XT16 software were used to track and record (1280 × 960 resolution at 25 frames per second) larval zebrafish (5 dpf) movement in glass 96-well plates (Zissner North America 3,600,500). […] An EM response using the Daniovision tapping device (8 out of 8 intensity, movement response measured for 1 s after stimulus) was also measured at the end of the SM observation period. […] Toxicity was measured in separate experiments by exposing larvae to compounds for 30 min, transferring to fresh E3, and then observing mortality after exposure.

[3] = target: T1, horse spleen apoferritin (HSAF) (Equus caballus, UniProt P02791); assay: 1-Aminoanthracene (1-AMA) competition fluorescence assay; type: binding
T1 construct: model protein HSAF (horse spleen apoferritin); purchased Sigma-Aldrich; host or cells: horse spleen (tissue-derived)
T1 sequence (P02791 2-175 limits assumed): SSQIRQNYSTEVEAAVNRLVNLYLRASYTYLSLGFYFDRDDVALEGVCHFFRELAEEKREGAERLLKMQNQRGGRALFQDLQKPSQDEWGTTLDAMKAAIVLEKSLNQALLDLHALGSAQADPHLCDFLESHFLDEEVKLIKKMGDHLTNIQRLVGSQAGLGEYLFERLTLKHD

[4] = target: T1, horse spleen apoferritin (HSAF); design: method as in doi:10.1055/s-0040-1707287; conditions: cited from earlier work
[5] = system: propofol-sensitive GABAAR; design: method as in PMID 25799399; conditions: cited from earlier work
tadpoles = system: tadpoles; design: method as in PMID 25799399; conditions: cited from earlier work
zebrafish = system: zebrafish; design: method as in PMID 33355437; conditions: cited from earlier work
[6] = PFAL compound alone at 10 and 30 μM, versus DMSO control

CC(C)c1cccc(C(C)C)c1F [Compound 9, 1,3-diisopropyl-2-fluorobenzene]
Antagonism of propofol via SM (5 dpf larval zebrafish [1]; 30 μM PFAL compound co-administered with propofol (0.3, 1, 5 μM), screen): showed antagonism of propofol; also recorded: statistically significant antagonism
Antagonism of propofol via SM at 5 μM propofol (5 dpf larval zebrafish [1]; 30 μM PFAL compound, propofol 5 μM): antagonized propofol
pIC50 (5 dpf larval zebrafish [1]; Danio rerio, 120 h, 5 dpf zebrafish exposed to 3 μM propofol, Fig. 5d, read-out: IC50 (antagonism of propofol)): 4.43
Spontaneous movement (SM), compound alone (5 dpf larval zebrafish [1]; [6]): increased SM
Increase of propofol EC50 versus propofol alone, spontaneous movement (5 dpf larval zebrafish [1]; propofol plus 30 μM compound, Fig. 4a): ~ tenfold
Elicited movement (EM), compound alone (5 dpf larval zebrafish [2]; [6]): increased EM
Schild-type analysis with EM (5 dpf larval zebrafish [2]; propofol EC50 curves (EM) at various concentrations of the compound, Fig. S6): no such relationship of antagonism was observed
Reversal of established propofol immobility (5 dpf zebrafish): rapid reversal of propofol immobility
Inhibition of 1-AMA binding to HSAF ([3]; 15 μM 1-AMA, 15 μM HSAF dimer, ligand 1 to 125 μM): most potent inhibitors of 1-AMA binding
Shape of IC50 curve for 1-AMA displacement ([3]; Fig. 6b): incomplete inhibition of 1-AMA binding
Binding to the anesthetic site of HSAF [4]: binds to this site
Modulation of a propofol-sensitive GABAAR [5]: no significant modulation
Antagonism of propofol in tadpoles (tadpoles): antagonize propofol
Antagonism of propofol in zebrafish (zebrafish): antagonize propofol
